Laboratory results taken from US10208074B2, “Pyrazole compounds and method for making and using the compounds” (Rigel Pharmaceuticals, Inc., priority 2015, dated 2019).
Counter-ions that a name gives are not always drawn. Like-named read-outs stand apart in the source and are kept apart here.

Columns and labels:
IL-23 (p19/p40) = assay: IL23-p19 ELISA, Dendritic, LPS (compound screening using DC cells); format: cell-based, Human; conditions: PBMC-derived DC cells, IFNγ primed, LPS 1 μg/ml, 18 hours, 10 pt, read-out: IL23-p19 ELISA, Dendritic, LPS, 10 pt, EC50
Method in brief: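 Human PBMC-derived dendritic cells (7 d GM-CSF 100 ng/ml + IL-4 20 ng/ml), primed 24 h with IFNγ 50 ng/ml, pre-incubated 1 h with compound, then stimulated 18 h with LPS 1 μg/ml. Supernatant IL-23 measured by p19-capture/p40-detection chemiluminescent ELISA; CellTiter Glo checks cytotoxicity.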

IL-23p19 = assay: LPS induced IL23p19 in THP-1 cells (with IFNγ primed) assay; format: cell-based, Human; conditions: THP-1 cells, IFNγ primed, LPS 1 ug/mL, 18 hours, 10 pt, read-out: IL23-p19 ELISA, THP1-IFNy, LPS, 10 pt EC50
Method in brief: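 THP-1 cells primed ~18 h with IFNγ (50 ng/mL), pre-incubated 1 h with compound at 37 °C, then stimulated 18 h with LPS (1 ug/mL final). Supernatant IL-23p19 measured by sandwich ELISA with chemiluminescent read-out; EC50 from curve fitting. Toxicity checked on the remaining cells by Cell Titer Glo.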

CC(C)(C)OC(=O)N1CC(n2cc(NC(=O)c3ccc(-c4cn[nH]c4)o3)c(-c3ccccn3)n2)C1 [Compound I-70, tert-Butyl-3-[4-{5-(1H-pyrazole-4-yl)furan-2-carboxamido}-3-(pyridine-2-yl)-1H-pyrazol-1-yl]azetidine-1-carboxylate, formate salt] was tested. Which EC50 (IL-23 (p19/p40); formate salt) did it give?
Its EC50 is 28.3 nM.

And the EC50 (IL-23p19; formate salt)?
Its EC50 is 366 nM.

With COC1CC(n2cc(NC(=O)c3ccc(-c4cn[nH]c4)o3)c(-c3ccccn3)n2)C1 (stereo not drawn) [Compound I-71, N-{1-(3-Methoxycyclobutyl)-3-(pyridine-2-yl)-1H-pyrazol-4-yl}-5-(1H-pyrazol-4-yl)furan-2-carboxamide, formate salt, Cis isomer] as the compound, how does the EC50 (IL-23 (p19/p40)) read?
The EC50 was 22.5 nM.

What about the EC50 (IL-23p19) of the same compound?
The EC50 was 26.5 nM.

With COC1CC(n2cc(NC(=O)c3ccc(-c4cn[nH]c4)o3)c(-c3ccccn3)n2)C1 (stereo not drawn) [Compound I-72, N-{1-(3-Methoxycyclobutyl)-3-(pyridine-2-yl)-1H-pyrazol-4-yl}-5-(1H-pyrazol-4-yl)furan-2-carboxamide, Cis isomer] as the compound, how does the EC50 (IL-23 (p19/p40)) read?
Its EC50 is 5 nM.

And the EC50 (IL-23p19)?
The EC50 was 56.8 nM.

O=C(Nc1cn(C2CC(OCc3ccccc3)C2)nc1-c1ccccn1)c1ccc(-c2cn[nH]c2)o1 (stereo not drawn) [Compound I-73, N-{1-(3-Benzyloxy)cyclobutyl)-3-(pyridine-2-yl)-1H-pyrazol-4-yl}-5-(1H-pyrazol-4-yl)furan-2-carboxamide, Trans isomer] was tested. Which EC50 (IL-23 (p19/p40); Homo sapiens, 18 h) did it give?
The EC50 was 410 nM.

And the EC50 (IL-23p19; Homo sapiens, THP-1, 18 h)?
The EC50 was 697 nM.

With CC(C)(C)OC(=O)N1CC(n2cc(NC(=O)c3ccc(-c4cn[nH]c4)o3)c(-c3ccccn3)n2)C1 [Compound I-74, tert-Butyl-3-[4-{5-(1H-pyrazole-4-yl)furan-2-carboxamido}-3-(pyridine-2-yl)-1H-pyrazol-1-yl]azetidine-1-carboxylate] as the compound, how does the EC50 (IL-23 (p19/p40)) read?
Its EC50 is 131 nM.

What about the EC50 (IL-23p19) of the same compound?
The EC50 was 151 nM.

Which EC50 (IL-23 (p19/p40)) does the source give for COC1CC(n2cc(NC(=O)c3ccc(-c4cn[nH]c4)o3)c(-c3ccccn3)n2)C1 (stereo not drawn) [Compound I-75, N-(1-((1s,3s)-3-methoxycyclobutyl)-3-(pyridin-2-yl)-1H-pyrazol-4-yl)-5-(1H-pyrazol-4-yl)furan-2-carboxamide formate] here?
The EC50 was 19.5 nM.

And the EC50 (IL-23p19)?
Its EC50 is 102 nM.

What does the source list for Cn1cc(NC(=O)c2ccc(-c3cn[nH]c3)o2)c(-c2ccccn2)n1 [Compound I-77, N-{1-Methyl-3-(pyridine-2-yl)-1H-pyrazol-4-yl}-5-(1H-pyrazol-4-yl)furan-2-carboxamide, free base]?
EC50 (IL-23 (p19/p40)): 41 nM; EC50 (IL-23p19): 50.4 nM

For O=C(Nc1cn(C2CNC2)nc1-c1ccccn1)c1ccc(-c2cn[nH]c2)o1 [Compound I-78, N-{1-(Azetidin-3-yl)-3-(pyridine-2-yl)-1H-pyrazol-4-yl}-5-(1H-pyrazol-4-yl)furan-2-carboxamide, TFA salt], which EC50 (IL-23 (p19/p40); Homo sapiens, 18 h) is on record?
The EC50 was 105 nM.

What about the EC50 (IL-23p19; Homo sapiens, THP-1, 18 h) of the same compound?
Its EC50 is 78.4 nM.

Which results are given for Cn1cc(NC(=O)c2ccc(-c3cnn(COP(=O)(OC(C)(C)C)OC(C)(C)C)c3)o2)c(-c2ccccn2)n1 [Compound I-80, Di-tert-butyl-[[4-{4-(5-((1-methyl-3-(pyridine-2-yl)-1H-pyrazol-4-yl)carbamoyl)furan-2-yl)-1H-pyrazol-1-yl}methyl] phosphate]?
EC50 (IL-23 (p19/p40); Homo sapiens, 18 h): 2060 nM; EC50 (IL-23p19; Homo sapiens, THP-1, 18 h): 2220 nM

With Cn1cc(NC(=O)c2ccc(-c3cnn(COP(=O)(O)O)c3)o2)c(-c2ccccn2)n1 [Compound I-81, [4-{5-((1-Methyl-3-(pyridine-2-yl)-1H-pyrazol-4-yl)carbamoyl)furan-2yl}-1H-pyrazol-1-yl]methyl dihydrogen phosphate] as the compound, how does the EC50 (IL-23 (p19/p40); Homo sapiens, 18 h) read?
Its EC50 is 960 nM.

What about the EC50 (IL-23p19; Homo sapiens, THP-1, 18 h) of the same compound?
Its EC50 is 153 nM.

Which EC50 (IL-23 (p19/p40); phosphate) does the source give for Cn1cc(NC(=O)c2ccc(-c3cnn(COP(=O)(O)O)c3)o2)c(-c2ccccn2)n1 [Compound I-82, Sodium [4-{5-((1-Methyl-3-(pyridine-2-yl)-1H-pyrazol-4-yl)carbamoyl)furan-2-yl}-1H-pyrazol-1-yl]methyl phosphate] here?
The EC50 was 780 nM.

And the EC50 (IL-23p19; phosphate)?
Its EC50 is 205 nM.

How did the EC50 (IL-23 (p19/p40); Homo sapiens, 18 h) turn out when CC(=O)N1CC(n2cc(NC(=O)c3ccc(-c4cn[nH]c4)o3)c(-c3ccccn3)n2)C1 [Compound I-83, N-{1-(1-Acetylazetidin-3-yl)-3-(pyridine-2-yl)-1H-pyrazol-4-yl}-5-(1H-pyrazol-4-yl)furan-2-carboxamide, free base] was run?
The EC50 was 93.2 nM.

And the EC50 (IL-23p19; Homo sapiens, THP-1, 18 h)?
Its EC50 is 34.8 nM.
